# Data: patent EP4368729A1, “MOLECULES TARGETING RIBOSOMAL PROTEIN RPL40 FOR USE IN COSMETICS AND THE TREATMENT OF DISEASES OF THE SKIN” (Merck Patent GmbH, priority 2022, dated 2024)
# Entries after “also recorded” stand apart in the source; their conditions may differ.
# Target: T1, rpL40 (Saccharomyces cerevisiae, UniProt P0CH08)
# T1 construct: endogenous in cells; host or cells: S. cerevisiae diploid strain (BY2n / BY4743 background) co-transformed with the TE-FF and REN reporter plasmids
# Assay: Biological activity of prospective L40 binders: tropoelastin-firefly / renilla dual luciferase reporter in yeast cells
# Type: cell-based
# Conditions: treatment at 1nM, 10nM, 100nm, 1µM, 10µM and 100µM; replicates n=3; Figs. 3-5
# Experimental: The present invention will now be described further in the following examples with reference to the accompanying Figures, nevertheless, without being limited thereto. […] The wildtype (abbreviated WT) is shown as a red dot. […] Replicates n=3, and treatment was made at 1nM, 10nM, 100nm, 1µM, 10µM, and 100µM concentration of compounds.
# Wildtype (BY2n) and variant ribosomal protein yeast strains (Kelly DE, Lamb DC, Kelly SL. Genome-wide generation of yeast gene deletion strains. Comp Funct Genomics. 2001;2(4):236-42. doi: 10.1002/cfg.95. PMID: 18628917; PMCID: PMC2447215), that were co-transformed with the tropoelastin-firefly and the renilla protein expression reporter plasmids were used for overnight cultures using single colony inoculation. Cell density (OD600) was determined using a Hitachi U_3000 spectrophotometer. […]
# Dual luciferase assay readouts were performed with the GloMax Multi Detection System using the Dual-Luciferase® Reporter Assay System (Promega). For each dual luciferase luminescence measurement, 50 µl of a cell culture (5×10^5 cells) were transferred into a 96-well plate and lysed through addition of 20 µl passive lysis buffer (Promega) for one minute, following the instruction of the supplier. FF luminescence readout was detected upon addition of 50 µl of LAR II substrate, and then REN luminescence signal was recorded after the addition of 50 µl Stop & Glo® substrate. […]
# T1 sequence (P0CH08 77-128): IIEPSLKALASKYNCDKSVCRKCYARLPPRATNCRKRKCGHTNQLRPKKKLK
structure (smiles),measurement,value
CCCC(Oc1cccc(C(=N)N)c1)C(=O)Nc1ccc2c(c1)S(=O)(=O)c1ccccc1-2 (stereo not shown) [Compound 22],translation in yeast cells,decreasing translation; also recorded: lowered translation
